Like-named read-outs stand apart in the source and are kept apart here.
Columns and labels:
[1] = octanol-water; cited from earlier work
PhoA5 pPAT7 = assay type: cell-based, Pseudomonas putida; conditions: for tolerance to paraben / tolerance to amino acid: PhoA5 pPAT7; for tolerance to paraben: same gradients; for tolerance to amino acid: gradient 0 to 50 g/L; for tolerance to aromatic carboxylic acids: PhoA5(pPAT7), double diffusion plates
P. putida PhoA5 = assay type: cell-based, Pseudomonas putida; conditions: for tolerance to paraben: same gradients; for tolerance to amino acid: gradient 0 to 50 g/L; for concentration that the strain tolerated: aromatic carboxylic acid gradient, 20 h at 30° C.
[2] = system: Pseudomonas putida DOT-T1E (wild-type); assay type: cell-based; conditions: for tolerance to paraben / tolerance to amino acid: T1E; for tolerance to paraben: gradient up to 2, 1.54, 0.8, 0.3 g/L for methyl-, ethyl-, propyl-, butylparaben; for tolerance to amino acid: gradient 0 to 50 g/L; for concentration that the strain tolerated: Wild-type, aromatic carboxylic acid gradient, 20 h at 30° C.
T1E pPAT7 = assay type: cell-based, Pseudomonas putida; conditions: for tolerance to paraben: same gradients; for tolerance to amino acid: gradient 0 to 50 g/L
[3] = system: Pseudomonas putida DOT-T1E; assay: Halo-inhibition test with antibiotic disks on minimal medium; assay type: cell-based; conditions: for size of the inhibition halo: strain T1E, 6-mm disks, µg per disk as, minimal medium; for tolerance/sensitivity to antibiotic: wild-type, Halo-inhibition test
PhoA5 mutant = conditions: 3 μg/mL EDDHA, M9 with glucose; overcome by adding Fe-citrate
[4] = system: wild-type strain (DOT-T1E); conditions: 3 μg/mL EDDHA, M9 with glucose
adapted strain = conditions: after 11 transfers; slow rate
toluene-tolerant strain = assay: Enrichment selection in flasks, toluene; assay type: cell-based; conditions: slow rate of growth
Method: Using a similar procedure with toluene, a toluene-tolerant strain (with a slow rate of growth on 150 ppm of toluene) was obtained. Adding 10 mM MgSO4 increased the tolerance of the organism to toluene.

DOT-T1E = assay type: cell-based, Pseudomonas putida; conditions: wild-type, 0.3% (vol/vol) toluene

For CCCCCCCCO [1-octanol], the “log Pow” value [1] is listed as 2.8.

CCCCOC(=O)c1ccc(O)cc1 [BP, butylparabene] gave a tolerance to paraben (PhoA5 pPAT7) greater than 0.3 g/L, a tolerance to paraben (P. putida PhoA5) greater than 0.3 g/L and a tolerance to paraben (P. putida PhoA5; listed as butylparaben) of no less than 0.3 g/L. For the same compound, the tolerance to paraben [2] was greater than 0.3 g/L and the tolerance to paraben (T1E pPAT7) was greater than 0.3 g/L.

For O=C(O)c1cn(C2CC2)c2cc(N3CCNCC3)c(F)cc2c1=O [CIP, ciprofloxacine], the “size of the inhibition halo” value [3] was 21 mm and the “tolerance/sensitivity to antibiotic” value [3] was “sensitive”.

For CO/N=C(\C(=O)N[C@@H]1C(=O)N2C(C(=O)O)=C(COC(C)=O)CS[C@H]12)c1csc(N)n1 [CTX, cefotaxime], the “size of the inhibition halo” value [3] was 14 mm and the “tolerance/sensitivity to antibiotic” value [3] was “sensitive”.

With CCOC(=O)c1ccc(O)cc1 [EB, ethylparabene] the tolerance to paraben (PhoA5 pPAT7) was 1.54 g/L, the tolerance to paraben (PhoA5 pPAT7; listed as ethylparaben) was “as tolerant as the wild-type strain” and the tolerance to paraben (P. putida PhoA5) was roughly 1.4 g/L. The tolerance to paraben [2] was greater than 1.54 g/L.

With O=C(O)C(NCCNC(C(=O)O)c1ccccc1O)c1ccccc1O (centres unmarked) [EDDHA, ethylenediamine-di (o-hydroxyphenylacetic acid)] the “growth in the presence of iron chelator” value (PhoA5 mutant) was “severely inhibited” and the “growth in the presence of iron chelator” value [4] was “grew under all culture conditions”.

For N[C@@H](Cc1c[nH]cn1)C(=O)O [Histidine, L-histidine], the “tolerance to amino acid” value (PhoA5 pPAT7) was 29.4 g/L, the “tolerance to amino acid” value (P. putida PhoA5) was 22.3 g/L and the “tolerance to amino acid” value (P. putida PhoA5; listed as histidine) was “about 23 g/L”. For the same compound, the “tolerance to amino acid” value [2] was 31.2 g/L, the “tolerance to amino acid” value ([2]; listed as histidine) was roughly 31 g/L and the “tolerance to amino acid” value (T1E pPAT7) was 30.6 g/L.

For C[C@@H](O)[C@H]1C(=O)N2C(C(=O)O)=C(SCCN=CN)C[C@H]12 [IPM, imipenen], the “size of the inhibition halo” value [3] was 26 mm and the “tolerance/sensitivity to antibiotic” value [3] was “sensitive”.

With COC(=O)c1ccc(O)cc1 [MB, methylparabene] the tolerance to paraben (PhoA5 pPAT7) was greater than 2.0 g/L, the tolerance to paraben (PhoA5 pPAT7; listed as methylparaben) was “as tolerant as the wild-type strain” and the tolerance to paraben (P. putida PhoA5) was 1.0 g/L. The tolerance to paraben (P. putida PhoA5; listed as methylparaben) was “about 1 g/L”, the tolerance to paraben [2] was greater than 2 g/L and the tolerance to paraben (T1E pPAT7) was greater than 2 g/L.

For CCn1cc(C(=O)O)c(=O)c2ccc(C)nc21 [NA, nalidixic acid], the “size of the inhibition halo” value [3] was 15 mm and the “tolerance/sensitivity to antibiotic” value [3] was “equally sensitive”.

For CCn1cc(C(=O)O)c(=O)c2cc(F)c(N3CCNCC3)cc21 [NOR, norfloxacine], the “size of the inhibition halo” value [3] was 20 mm and the “tolerance/sensitivity to antibiotic” value [3] was “sensitive”.

With CCCOC(=O)c1ccc(O)cc1 [PB, propylparabene] the tolerance to paraben (PhoA5 pPAT7) was greater than 0.8 g/L, the tolerance to paraben (P. putida PhoA5) was greater than 0.8 g/L and the tolerance to paraben (P. putida PhoA5; listed as propylparaben) was “at least 0.8 g/L”. It also gave a tolerance to paraben [2] greater than 0.8 g/L and a tolerance to paraben (T1E pPAT7) greater than 0.8 g/L.

With CCN1CCN(C(=O)N[C@@H](C(=O)N[C@@H]2C(=O)N3[C@@H]2SC(C)(C)[C@@H]3C(=O)O)c2ccccc2)C(=O)C1=O [PIP, piperacillin] the “size of the inhibition halo” value [3] was 18 mm and the “tolerance/sensitivity to antibiotic” value [3] was “equally sensitive”.

With [H]/N=C(/N)N[C@H]1[C@H](O)[C@@H](O)[C@H](O[C@@H]2O[C@@H](C)[C@](O)(C=O)[C@H]2O[C@@H]2O[C@@H](CO)[C@H](O)[C@@H](O)[C@@H]2NC)[C@@H](N/C(N)=N\[H])[C@@H]1O [SM, streptomycin] the “size of the inhibition halo” value [3] was 16 mm and the “tolerance/sensitivity to antibiotic” value [3] was “equally sensitive”.

With CN(C)[C@@H]1C(O)=C(C(N)=O)C(=O)[C@@]2(O)C(O)=C3C(=O)c4c(O)cccc4[C@@](C)(O)[C@H]3C[C@@H]12 [TE, tetracycline] the “size of the inhibition halo” value [3] was 21 mm.

In the case of N[C@@H](Cc1c[nH]c2ccccc12)C(=O)O [Tryptophan, L-tryptophan], the “tolerance to amino acid” value (PhoA5 pPAT7) is reported as 22.9 g/L, the “tolerance to amino acid” value (PhoA5 pPAT7; listed as tryptophan) is reported as “more sensitive than the wild-type” and the “tolerance to amino acid” value (P. putida PhoA5) is reported as 23.5 g/L. For the same compound, the “tolerance to amino acid” value (P. putida PhoA5; listed as tryptophan) was “about 23 g/L”, the “tolerance to amino acid” value [2] was 35.3 g/L and the “tolerance to amino acid” value ([2]; listed as tryptophan) was roughly 35 g/L. The “tolerance to amino acid” value (T1E pPAT7) was 38.8 g/L.

With N[C@@H](Cc1ccc(O)cc1)C(=O)O [Tyrosine, L-tyrosine] the “tolerance to amino acid” value (P. putida PhoA5) was 25.3 g/L, the “tolerance to amino acid” value (P. putida PhoA5; listed as tyrosine) was “about 23 g/L” and the “tolerance to amino acid” value [2] was “about 40 g/L”.

For CC(=O)O [acetate], the “acetate concentration at which the adapted strain was able to grow” value (adapted strain) was 200 mM.

For CC1(C)S[C@@H]2[C@H](NC(=O)[C@H](N)c3ccccc3)C(=O)N2[C@H]1C(=O)O [ampicillin], the “tolerance/sensitivity to antibiotic” value [3] was “tolerant”.

In the case of C1CCCCC1 [cyclohexane], the “log Pow” value [1] is listed as 3.2.

In the case of CC[C@H]1OC(=O)[C@H](C)[C@@H](O[C@H]2C[C@@](C)(OC)[C@@H](O)[C@H](C)O2)[C@H](C)[C@@H](O[C@@H]2O[C@H](C)C[C@H](N(C)C)[C@H]2O)[C@](C)(O)C[C@@H](C)C(=O)[C@H](C)[C@@H](O)[C@]1(C)O [erythromycin], the “tolerance/sensitivity to antibiotic” value [3] is reported as “tolerant”.

For CCc1ccccc1 [ethylbenzene], the “log Pow” value [1] is listed as 3.1.

In the case of CCCCCCC [heptane], the “log Pow” value [1] is listed as 4.5.

With Nc1cccc(C(=O)O)c1 [m-aminobenzoate] the “tolerance to aromatic carboxylic acids” value (PhoA5 pPAT7) was “as tolerant as the wild-type”, the “concentration that the strain tolerated” value (P. putida PhoA5) was 7.5 g/L and the “concentration that the strain tolerated” value [2] was 14.8 g/L.

For O=C(O)c1cccc(Cl)c1 [m-chlorobenzoate], the “tolerance to aromatic carboxylic acids” value (PhoA5 pPAT7) was “as tolerant as the wild-type”, the “concentration that the strain tolerated” value (P. putida PhoA5) was 3.0 g/L and the “concentration that the strain tolerated” value [2] was 4.5 g/L.

With COc1cccc(C(=O)O)c1 [m-methoxybenzoate] the “tolerance to aromatic carboxylic acids” value (PhoA5 pPAT7) was “as tolerant as the wild-type”, the “concentration that the strain tolerated” value (P. putida PhoA5) was 7.2 g/L and the “concentration that the strain tolerated” value [2] was 12 g/L.

In the case of Nc1ccccc1C(=O)O [o-aminobenzoate], the “tolerance to aromatic carboxylic acids” value (PhoA5 pPAT7) is reported as “as tolerant as the wild-type”, the “concentration that the strain tolerated” value (P. putida PhoA5) is reported as 5.0 g/L and the “concentration that the strain tolerated” value [2] is reported as 8.7 g/L.

For O=C(O)c1ccccc1Cl [o-chlorobenzoate], the “tolerance to aromatic carboxylic acids” value (PhoA5 pPAT7) was “as tolerant as the wild-type”, the “concentration that the strain tolerated” value (P. putida PhoA5) was 6.0 g/L and the “concentration that the strain tolerated” value [2] was 14.5 g/L.

With COc1ccccc1C(=O)O [o-methoxybenzoate] the “tolerance to aromatic carboxylic acids” value (PhoA5 pPAT7) was “as tolerant as the wild-type”, the “concentration that the strain tolerated” value (P. putida PhoA5) was 8.5 g/L and the “concentration that the strain tolerated” value [2] was 17 g/L.

With Nc1ccc(C(=O)O)cc1 [p-aminobenzoate] the “tolerance to aromatic carboxylic acids” value (PhoA5 pPAT7) was “as tolerant as the wild-type”, the “concentration that the strain tolerated” value (P. putida PhoA5) was 7.8 g/L and the “concentration that the strain tolerated” value [2] was 13.0 g/L.

For Cc1ccc(C(=O)O)cc1 [p-methylbenzoate], the “tolerance to aromatic carboxylic acids” value (PhoA5 pPAT7) was “as tolerant as the wild-type”, the “concentration that the strain tolerated” value (P. putida PhoA5) was 7.4 g/L and the “concentration that the strain tolerated” value [2] was 14.5 g/L.

In the case of Cc1ccc(C)cc1 [p-xylene], the “log Pow” value [1] is given as 3.0.

In the case of CCCc1ccccc1 [propylbenzene], the “log Pow” value [1] is given as 3.6.

In the case of Cc1ccccc1 [toluene], the “toluene concentration at which the strain grew” value (toluene-tolerant strain) is reported as 150 ppm, the “survival of toluene shock” value (DOT-T1E; cells pre-exposed to toluene in the gas phase) is reported as “tolerated the shock” and the “loss of viability after sudden exposure to toluene” value (DOT-T1E; non-pre-exposed cells) is reported as 5 orders of magnitude.

For CN[C@H](CC(C)C)C(=O)N[C@H]1C(=O)N[C@@H](CC(N)=O)C(=O)N[C@H]2C(=O)N[C@H]3C(=O)N[C@H](C(=O)N[C@H](C(=O)O)c4cc(O)cc(O)c4-c4cc3ccc4O)[C@H](O)c3ccc(c(Cl)c3)Oc3cc2cc(c3O[C@@H]2O[C@H](CO)[C@@H](O)[C@H](O)[C@H]2O[C@H]2C[C@](C)(N)[C@H](O)[C@H](C)O2)Oc2ccc(cc2Cl)[C@H]1O [vancomycin], the “tolerance/sensitivity to antibiotic” value [3] was “tolerant”.

With gentamycin [GM] the “size of the inhibition halo” value [3] was 17 mm and the “tolerance/sensitivity to antibiotic” value [3] was “equally sensitive”.

In the case of p-methoxybenzoate, the “tolerance to aromatic carboxylic acids” value (PhoA5 pPAT7) is reported as “as tolerant as the wild-type”, the “concentration that the strain tolerated” value (P. putida PhoA5) is reported as 9.1 g/L and the “concentration that the strain tolerated” value [2] is reported as 19 g/L.
